In brackets after ≈: the same amount, converted by molar mass.
Experiments:
[1] = test system: H9 (acute lymphoblastic leukemia) cells; test: MTT cell growth inhibition, leukemia cells; assay type: cell-based, human; conditions: for IC50 / IC90: Homo sapiens, H9, 72 h, MTT; for IC50: read-out: IC50; for IC90: read-out: IC90
Summary of the method: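 Viability was read by MTT after 72 h of compound exposure at 37° C. under 5% CO2. Compounds were added at a range of concentrations one day after plating 6000 leukemia cells per well in RPMI-1640 containing 10% fetal bovine serum.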

[2] = test system: K562/ADR (K562adr, drug-resistant chronic myeloid leukemia) cells; test: MTT cell growth inhibition, leukemia cells; assay type: cell-based; conditions: Homo sapiens, K562/ADR, 72 h, MTT; for IC50: read-out: IC50; for IC90: read-out: IC90
Excerpt: (§1) Leukemia cell lines: leukemia cell lines: K562adr (drug-resistant, chronic myeloid leukemia, CML), NB4 (acute promyelocytic leukemia, AML), Kasumi-1 (acute myeloid leukemia M2 type, AML-M2), Jurkat (acute lymphoblastic leukemia, ALL), all of which were donated by Cancer Research Institute of Zhejiang University, China; and H9 (acute lymphoblastic leukemia, ALL), which was purchased from China Center for Type Culture Collection.
(§2) Reagents: The standard sample of fangchinoline (FAN) was purchased from Ci Yuan Biotechnology Co., Ltd., Shaanxi, China; and the 7-substituted fangchinoline derivatives according to the present invention.
(§3) 6000 well-growing leukemia cells were obtained and inoculated into wells of a 96-well cell culture plate. The culture medium was a RPMI-1640 cell culture medium containing 10% fetal bovine serum. After adding the 7-substituted fangchinoline derivatives of different concentrations the next day and mixing uniformly, the plate was placed in a carbon dioxide cell incubator (5% CO2) at 37° C. and incubating for 72 hours. Then the viable cell concentration was determined by the MTT method.

[3] = test system: NB4 (acute promyelocytic leukemia) cells; test: MTT cell growth inhibition, leukemia cells; assay type: cell-based; conditions: Homo sapiens, NB4, 72 h, MTT; for IC50: read-out: IC50; for IC90: read-out: IC90
Excerpt: as §1, §2, §3

[4] = test system: Hep G2 transplanted tumor; test: Transplanted tumor of liver cancer in nude mice
Method: Liver cancer cell lines: Hep G2 (human liver cancer cell line);
Animal: BALBc nude mice (immunodeficient mice), 8 weeks, female, purchased from Shanghai Laboratory Animal Center of Chinese Academy of Sciences, China.
Under sterile conditions, the Hep G2 cells in the logarithmic growth phase were respectively collected and injected subcutaneously in an amount of 2.3×10^7/0.2 mL/nude mice (cell viability >90%) into the left subaxillary of the nude mice, thus establishing a transplanted tumor model of liver cancer in nude mice. The mice were administered from the second day after inoculation. The experimental group was intragastrically administered with the experimentally designed amount, the negative control group was intragastrically administered with sterile water, and the positive control group was intragastrically administered with erlotinib hydrochloride. Each mouse was intragastrically administered in 0.4 ml each time and 3 times a day, at 8:00, 14:00 and 20:00, with 6-hour intervals. The administrations were successive for 10 days. The day before administration was deemed as Day 0 and the weight and tumor size of the mice were determined every 5 days to produce a dynamic plot on weight and tumor growth (the experimental results are presented as mean±SD). On Day 28, the mice were sacrificed and the tumors were taken out and weighed. The tumor inhibition rate (%) after the effect of the medicament was calculated based on a tumor inhibition rate of the control group being zero.
The experimental data for each group were analyzed by using the One-way ANOVA method in the SPSS 19.0 statistical software and were compared with the control group for significance of difference.

[5] = test system: KCL-22M transplanted tumor; test: Transplanted tumor of leukemia in nude mice; assay type: in vivo, BALBc nude mice
Method: Leukemia cell lines: KCL-22M (human chronic myeloid leukemia mutant strain);
The mice were administered from the second day after the inoculation. […] The administrations were successive for 10 days. […] On Day 25, the mice were sacrificed and the tumors are taken out and weighed.

IC50 [1] [mg/L]	IC90 [1] [mg/L]	IC50 [2] [mg/L]	IC90 [2] [mg/L]	IC50 [3] [mg/L]	IC90 [3] [mg/L]	Compound	anti-H9 activity increase over fangchinoline ([1]; relative to fangchinoline, Table 1) [fold]	Mass of tumor ([4]; Hep G2 transplanted tumor, Day 28, intragastric 3 times a day for 10 days, BS-FC-308 35 mg/kg/time, erlotinib hydrochloride 20 mg/kg/time) [mg]	Tumor Inhibition rate ([4]; Hep G2 transplanted tumor, Day 28, intragastric 3 times a day for 10 days, BS-FC-308 35 mg/kg/time, erlotinib hydrochloride 20 mg/kg/time, control = 0) [%]	Body Weight (g) Initial ([4]; Hep G2 tumor nude mice, before administration, intragastric 3 times a day, BS-FC-308 35 mg/kg/time, erlotinib hydrochloride 20 mg/kg/time, mean±SD) [g]	Body Weight (g) Final ([4]; Hep G2 tumor nude mice, final, intragastric 3 times a day for 10 days, BS-FC-308 35 mg/kg/time, erlotinib hydrochloride 20 mg/kg/time, mean±SD) [g]	weight of the Hep G2 transplanted tumors (FIG. 3) ([4]; nude mice)	animal's weight during the administration (toxic and side effects) ([5]; 30 mg/kg/time, three administrations per day, weight rebounded after administration was stopped)	Mass of tumor ([5]; KCL-22M transplanted tumor, Day 25, 30 mg/kg/time intragastric 3 times a day for 10 days) [mg]	Tumor Inhibition rate ([5]; KCL-22M transplanted tumor, Day 25, 30 mg/kg/time intragastric 3 times a day for 10 days, control = 0) [%]	Body Weight (g) Initial ([5]; KCL-22M tumor nude mice, before administration, 30 mg/kg/time intragastric 3 times a day, mean±SD) [g]	Body Weight (g) Final ([5]; KCL-22M tumor nude mice, final, 30 mg/kg/time intragastric 3 times a day for 10 days, mean±SD) [g]
1 (≈ 1.29 µM)	2.8 (≈ 3.61 µM)	0.21 (≈ 0.271 µM)	1.43 (≈ 1.84 µM)	0.61 (≈ 0.786 µM)	1.61 (≈ 2.07 µM)	COc1ccc2cc1Oc1ccc(cc1)C[C@H]1c3cc(c(OC)cc3CCN1C)Oc1c(OCC(O)CN3CCN(C#N)CC3)c(OC)cc3c1[C@H](C2)N(C)CC3 (some centres unmarked) [BS-FC-421]	–	–	–	–	–	–	–	–	–	–	–
0.9 (≈ 1.22 µM)	2 (≈ 2.72 µM)	0.16 (≈ 0.217 µM)	1.38 (≈ 1.88 µM)	0.59 (≈ 0.802 µM)	1.76 (≈ 2.39 µM)	C=CCN(C)CC(O)COc1c(OC)cc2c3c1Oc1cc4c(cc1OC)CCN(C)[C@H]4Cc1ccc(cc1)Oc1cc(ccc1OC)C[C@@H]3N(C)CC2 (some centres unmarked) [BS-FC-409]	–	–	–	–	–	–	–	–	–	–	–
1.13 (≈ 1.48 µM)	2 (≈ 2.62 µM)	0.05 (≈ 0.0654 µM)	0.63 (≈ 0.825 µM)	0.28 (≈ 0.367 µM)	0.91 (≈ 1.19 µM)	COc1ccc2cc1Oc1ccc(cc1)C[C@H]1c3cc(c(OC)cc3CCN1C)Oc1c(OCC(O)CN3CCCC(C)C3)c(OC)cc3c1[C@H](C2)N(C)CC3 (some centres unmarked) [BS-FC-410]	–	–	–	–	–	–	–	–	–	–	–
0.88 (≈ 1.17 µM)	1.9 (≈ 2.53 µM)	0.05 (≈ 0.0667 µM)	0.83 (≈ 1.11 µM)	0.3 (≈ 0.4 µM)	0.78 (≈ 1.04 µM)	COc1ccc2cc1Oc1ccc(cc1)C[C@H]1c3cc(c(OC)cc3CCN1C)Oc1c(OCC(O)CN3CCCCC3)c(OC)cc3c1[C@H](C2)N(C)CC3 (some centres unmarked) [BS-FC-403]	–	–	–	–	–	–	–	–	–	–	–
3.6 (≈ 5.32 µM)	7.05 (≈ 10.4 µM)	0.44 (≈ 0.65 µM)	3 (≈ 4.43 µM)	1.24 (≈ 1.83 µM)	3.99 (≈ 5.9 µM)	COc1ccc2cc1Oc1ccc(cc1)C[C@H]1c3cc(c(OC)cc3CCN1C)Oc1c(OC(=O)C3CC3)c(OC)cc3c1[C@H](C2)N(C)CC3 [BS-FC-304]	–	–	–	–	–	–	–	–	–	–	–

Continued, compound first:

Compound	IC50 [1] [mg/L]	IC90 [1] [mg/L]	IC50 [2] [mg/L]	IC90 [2] [mg/L]	IC50 [3] [mg/L]	IC90 [3] [mg/L]	anti-H9 activity increase over fangchinoline ([1]; relative to fangchinoline, Table 1) [fold]	Mass of tumor ([4]; Hep G2 transplanted tumor, Day 28, intragastric 3 times a day for 10 days, BS-FC-308 35 mg/kg/time, erlotinib hydrochloride 20 mg/kg/time) [mg]	Tumor Inhibition rate ([4]; Hep G2 transplanted tumor, Day 28, intragastric 3 times a day for 10 days, BS-FC-308 35 mg/kg/time, erlotinib hydrochloride 20 mg/kg/time, control = 0) [%]	Body Weight (g) Initial ([4]; Hep G2 tumor nude mice, before administration, intragastric 3 times a day, BS-FC-308 35 mg/kg/time, erlotinib hydrochloride 20 mg/kg/time, mean±SD) [g]	Body Weight (g) Final ([4]; Hep G2 tumor nude mice, final, intragastric 3 times a day for 10 days, BS-FC-308 35 mg/kg/time, erlotinib hydrochloride 20 mg/kg/time, mean±SD) [g]	weight of the Hep G2 transplanted tumors (FIG. 3) ([4]; nude mice)	animal's weight during the administration (toxic and side effects) ([5]; 30 mg/kg/time, three administrations per day, weight rebounded after administration was stopped)	Mass of tumor ([5]; KCL-22M transplanted tumor, Day 25, 30 mg/kg/time intragastric 3 times a day for 10 days) [mg]	Tumor Inhibition rate ([5]; KCL-22M transplanted tumor, Day 25, 30 mg/kg/time intragastric 3 times a day for 10 days, control = 0) [%]	Body Weight (g) Initial ([5]; KCL-22M tumor nude mice, before administration, 30 mg/kg/time intragastric 3 times a day, mean±SD) [g]	Body Weight (g) Final ([5]; KCL-22M tumor nude mice, final, 30 mg/kg/time intragastric 3 times a day for 10 days, mean±SD) [g]
C=CCOc1c(OC)cc2c3c1Oc1cc4c(cc1OC)CCN(C)[C@H]4Cc1ccc(cc1)Oc1cc(ccc1OC)C[C@@H]3N(C)CC2 [BS-FC-213]	2.2 (≈ 3.39 µM)	4 (≈ 6.17 µM)	0.38 (≈ 0.586 µM)	1.72 (≈ 2.65 µM)	0.66 (≈ 1.02 µM)	2.32 (≈ 3.58 µM)	–	–	–	–	–	–	–	–	–	–	–
COc1ccc2cc1Oc1ccc(cc1)C[C@H]1c3cc(c(OC)cc3CCN1C)Oc1c(OC3CCCC3)c(OC)cc3c1[C@H](C2)N(C)CC3 [BS-FC-220]	3.23 (≈ 4.77 µM)	6.64 (≈ 9.81 µM)	0.43 (≈ 0.635 µM)	4 (≈ 5.91 µM)	0.66 (≈ 0.975 µM)	3.16 (≈ 4.67 µM)	–	–	–	–	–	–	–	–	–	–	–
COc1ccc2cc1Oc1ccc(cc1)C[C@H]1c3cc(c(OC)cc3CCN1C)Oc1c(OCC3CC3)c(OC)cc3c1[C@H](C2)N(C)CC3 [BS-FC-208]	2.01 (≈ 3.03 µM)	4.28 (≈ 6.46 µM)	0.28 (≈ 0.422 µM)	2.35 (≈ 3.55 µM)	0.48 (≈ 0.724 µM)	2.48 (≈ 3.74 µM)	–	–	–	–	–	–	–	–	–	–	–
COc1ccc2cc1Oc1ccc(cc1)C[C@H]1c3cc(c(OC)cc3CCN1C)Oc1c(OC(=O)c3ccc(N(C)C)cc3)c(OC)cc3c1[C@H](C2)N(C)CC3 [BS-FC-308]	0.7 (≈ 0.926 µM)	1.8 (≈ 2.38 µM)	0.08 (≈ 0.106 µM)	0.47 (≈ 0.622 µM)	0.37 (≈ 0.489 µM)	0.98 (≈ 1.3 µM)	> 3	566 ± 112.26	55.82	21.8 ± 0.62	19.0 ± 0.49	significantly reduces	weight was reduced	521 ± 249	74.45	19.5 ± 0.2	15.4 ± 1.51

Reference: US9328122B2, “7-substituted Hanfangichin B derivative, and preparation method and use thereof” (HANGZHOU BENSHENG PHARMACEUTICAL CO., LTD., priority 2012, dated 2016)
